Values of other authors in patent publication US20090118352A1, “Broad spectrum microbicidal and spermicidal compositions and methods” (ESAWTECH, LTD., priority 2007, published 2009).

Legend:
HIV [1] = conditions: clinical trial in women, stopped 2007
[2] = tested on: epithelial cells in the vagina
HIV [3] = conditions: phase III trial

| Substance | HIV infections, active group versus placebo group (HIV [1]) | effect on epithelial cells in the vagina [2] | HIV transmission rate versus placebo (HIV [3]; N-9 group) | efficacy in preventing HIV transmission (HIV [3]; UN Joint Programme on HIV/AIDS, 2002) |
| --- | --- | --- | --- | --- |
| cellulose sulfate | higher number of HIV infections in the active group compared with the placebo group | – | – | – |
| NONOXYL-9 [N-9] | – | can disrupt epithelial cells in the vagina | marginally higher | no efficacy |
